Laboratory results: PMC10046961, “High-Throughput Screening Assay for Detecting Drug-Induced Changes in Synchronized Neuronal Oscillations and Potential Seizure Risk Based on Ca^2+ Fluorescence Measurements in Human Induced Pluripotent Stem Cell (hiPSC)-Derived Neuronal 2D and 3D Cultures” (Cells, 2023)
Like-named read-outs stand apart in the source and are kept apart here. Marks after values point to notes of the source that are not given here.

Tests used:
[1] = system: hiPSC-derived neurons co-cultured with human primary astrocytes in 3D; test: Ca2+ transient oscillation assay (FDSS), 3D spheroids; assay type: cell-based; conditions: for Area under the curve - 3D Mean / Peak Number—3D Mean / Peak amplitude - 3D Mean / Peak width - 3D Mean / Peak-to-peak interval - 3D Mean: 60 min
Summary of the method: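 Fura-2 fluorescence was read twice for 20 min each: a baseline 10 min after 0.04% DMSO, and again 60 min after compound addition at nominal final concentration. The 3D co-cultures (1:1 hiPSC neurons from a donor and human astrocytes, 8000 each) matured 5 weeks in BrainPhys medium after a 1-week differentiation.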

[2] = system: hiPSC-derived neurons co-cultured with human primary astrocytes in 2D; test: Ca2+ transient oscillation assay (FDSS), 2D co-culture; assay type: cell-based; conditions: for effect on peak number / Ca2+ neuronal oscillations, in words: 2D format; for activation at 0.37 µM / activation at 1.11 µM / activation at 3.33 µM / activation at 10 µM / activation at 30 µM: Homo sapiens, 1 h, 60 min
Summary of the method: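 hiPSC-derived excitatory neurons (CW50065, Quick-Neuron EX-SeV) co-cultured with human primary astrocytes at 4:1 (10,000:2500 cells per well). Cal-520-loaded cells in HBSS with 2 mM CaCl2 and 10 mM HEPES were pretreated with 0.04% DMSO.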

[3] = ref PharmaPendium, cited from earlier work
[4] = read-out: Area under the curve - 2D Mean
[5] = read-out: Peak amplitude - 2D Mean
[6] = read-out: Peak-to-peak interval - 2D Mean
[7] = Table 1, peak plasma concentration in men, free therapeutic Cmax
[8] = Table 2, highest plasma concentration in humans after the therapeutic dose

SMILES: Nc1ccncc1 [4-AP, 4-Aminopyridine]
- Area under the curve - 3D Mean ([1]; 0.37 µM): 53.7 % change from baseline
- Peak Number—3D Mean ([1]; 0.37 µM): 16.7 % change from baseline
- Peak amplitude - 3D Mean ([1]; 0.37 µM): 44.3 % change from baseline
- Peak width - 3D Mean ([1]; 0.37 µM): 2.8 % change from baseline
- Peak-to-peak interval - 3D Mean ([1]; 0.37 µM): −9.2 % change from baseline
- Area under the curve - 3D Mean ([1]; 1.11 µM): 54.1 % change from baseline
- Peak Number—3D Mean ([1]; 1.11 µM): 62.4 * % change from baseline
- Peak amplitude - 3D Mean ([1]; 1.11 µM): 39.6 % change from baseline
- Peak width - 3D Mean ([1]; 1.11 µM): 7.7 % change from baseline
- Peak-to-peak interval - 3D Mean ([1]; 1.11 µM): −24.1 % change from baseline
- Area under the curve - 3D Mean ([1]; 3.33 µM): 97.2 % change from baseline
- Peak Number—3D Mean ([1]; 3.33 µM): 24.1 * % change from baseline
- Peak amplitude - 3D Mean ([1]; 3.33 µM): 46.1 % change from baseline
- Peak width - 3D Mean ([1]; 3.33 µM): 35.1 % change from baseline
- Peak-to-peak interval - 3D Mean ([1]; 3.33 µM): −17.6 % change from baseline
- Area under the curve - 3D Mean ([1]; 10 µM): 72.3 % change from baseline
- Peak Number—3D Mean ([1]; 10 µM): 89.0 ** % change from baseline
- Peak amplitude - 3D Mean ([1]; 10 µM): 42.8 % change from baseline
- Peak width - 3D Mean ([1]; 10 µM): 21.4 % change from baseline
- Peak-to-peak interval - 3D Mean ([1]; 10 µM): −47.2 % change from baseline
- response of positive controls on Ca2+ transient oscillations ([1]; 3D, 4-AP 30 µM, kainic acid 100 µM): significant responses
- effect on peak number / Ca2+ neuronal oscillations, in words [2]: significantly increased peak number
- response of positive controls on Ca2+ transient oscillations ([2]; 2D, 4-AP 30 µM, kainic acid 100 µM): significant responses
- change of Ca2+ neuronal oscillations (Figure 1) ([2]; 4-AP at 30 µM, kainic acid at 10 µM): large increases
- activation at 0.37 µM [2, 4]: 39.5%
- activation at 0.37 µM ([2]; read-out: Peak Number—2D Mean): 9%
- activation at 0.37 µM [2, 5]: 13.3%
- activation at 0.37 µM ([2]; read-out: Peak width - 2D Mean): 34%
- activation at 0.37 µM [2, 6]: -13%
- activation at 1.11 µM [2, 4]: 18.7%
- activation at 1.11 µM ([2]; read-out: Peak Number—2D Mean): 70.3%
- activation at 1.11 µM [2, 5]: 7.8%
- activation at 1.11 µM ([2]; read-out: Peak width - 2D Mean): 14.3%
- activation at 1.11 µM [2, 6]: -29.8%
- activation at 3.33 µM [2, 4]: 17.6%
- activation at 3.33 µM ([2]; read-out: Peak Number—2D Mean): 85.8%
- activation at 3.33 µM [2, 5]: 10.4%
- activation at 3.33 µM ([2]; read-out: Peak width - 2D Mean): 12.6%
- activation at 3.33 µM [2, 6]: -42.4%
- activation at 10 µM [2, 4]: 1.3%
- activation at 10 µM ([2]; read-out: Peak Number—2D Mean): 110%
- activation at 10 µM [2, 5]: 8.5%
- activation at 10 µM ([2]; read-out: Peak width - 2D Mean): -6.3%
- activation at 10 µM [2, 6]: -49.8%
- Free Cmax [3, 7]: 25 to 75 nM
- Free Cmax [3, 8]: 25 to 75 nM

SMILES: CC(=O)Nc1ccc(O)cc1 [Acetaminophen]
- Area under the curve - 3D Mean ([1]; 1.11 µM): 104.3 % change from baseline
- Peak Number—3D Mean ([1]; 1.11 µM): 2.2 % change from baseline
- Peak amplitude - 3D Mean ([1]; 1.11 µM): 97.4 % change from baseline
- Peak width - 3D Mean ([1]; 1.11 µM): 0.6 % change from baseline
- Peak-to-peak interval - 3D Mean ([1]; 1.11 µM): 12.7 % change from baseline
- Area under the curve - 3D Mean ([1]; 3.33 µM): 121.7 % change from baseline
- Peak Number—3D Mean ([1]; 3.33 µM): −3.0 % change from baseline
- Peak amplitude - 3D Mean ([1]; 3.33 µM): 106.4 % change from baseline
- Peak width - 3D Mean ([1]; 3.33 µM): 5.9 % change from baseline
- Peak-to-peak interval - 3D Mean ([1]; 3.33 µM): 17.4 % change from baseline
- Area under the curve - 3D Mean ([1]; 10 µM): 122.4 % change from baseline
- Peak Number—3D Mean ([1]; 10 µM): 12.5 % change from baseline
- Peak amplitude - 3D Mean ([1]; 10 µM): 108.6 % change from baseline
- Peak width - 3D Mean ([1]; 10 µM): 6.3 % change from baseline
- Peak-to-peak interval - 3D Mean ([1]; 10 µM): −6.2 % change from baseline
- Area under the curve - 3D Mean ([1]; 30 µM): 132.0 % change from baseline
- Peak Number—3D Mean ([1]; 30 µM): 47.2 * % change from baseline
- Peak amplitude - 3D Mean ([1]; 30 µM): 113.9 % change from baseline
- Peak width - 3D Mean ([1]; 30 µM): 9.0 % change from baseline
- Peak-to-peak interval - 3D Mean ([1]; 30 µM): −8.8 % change from baseline
- effect on peak count within expected therapeutic exposure levels ([2]; 2D): did not significantly reduce peak count
- effect on Ca2+ neuronal oscillations / peak count at 30 µM, in words ([2]; 2D, 30 µM, listed as Paracetamol): did reduce
- activation at 1.11 µM [2, 4]: 23%
- activation at 1.11 µM ([2]; read-out: Peak Number—2D Mean): -11.7%
- activation at 1.11 µM [2, 5]: 8.8%
- activation at 1.11 µM ([2]; read-out: Peak width - 2D Mean): 13%
- activation at 1.11 µM [2, 6]: 34%
- activation at 3.33 µM [2, 4]: 35.8%
- activation at 3.33 µM ([2]; read-out: Peak Number—2D Mean): -25%
- activation at 3.33 µM [2, 5]: 12.3%
- activation at 3.33 µM ([2]; read-out: Peak width - 2D Mean): 34.3%
- activation at 3.33 µM [2, 6]: -35.3%
- activation at 10 µM [2, 4]: 13.2%
- activation at 10 µM ([2]; read-out: Peak Number—2D Mean): -18.2%
- activation at 10 µM [2, 5]: -0.3%
- activation at 10 µM ([2]; read-out: Peak width - 2D Mean): 16.2%
- activation at 10 µM [2, 6]: -14.5%
- activation at 30 µM ([2]; 30 µM, read-out: Area under the curve - 2D Mean): -93.2%
- activation at 30 µM ([2]; 30 µM, read-out: Peak Number—2D Mean): -94.5%
- activation at 30 µM ([2]; 30 µM, read-out: Peak amplitude - 2D Mean): -89.8%
- activation at 30 µM ([2]; 30 µM, read-out: Peak width - 2D Mean): -92.5%
- activation at 30 µM ([2]; 30 µM, read-out: Peak-to-peak interval - 2D Mean): -100%
- Free Cmax [3, 7]: 460 nM
- Free Cmax [3, 8]: 460 nM

SMILES: CNCCCC12CCC(c3ccccc31)c1ccccc12 [Maprotiline]
- Area under the curve - 3D Mean ([1]; 0.37 µM): 139.7 % change from baseline
- Peak Number—3D Mean ([1]; 0.37 µM): −16.5 % change from baseline
- Peak amplitude - 3D Mean ([1]; 0.37 µM): 116.3 % change from baseline
- Peak width - 3D Mean ([1]; 0.37 µM): 6.2 % change from baseline
- Peak-to-peak interval - 3D Mean ([1]; 0.37 µM): 6.2 % change from baseline
- Area under the curve - 3D Mean ([1]; 1.11 µM): 133.4 % change from baseline
- Peak Number—3D Mean ([1]; 1.11 µM): −8.2 % change from baseline
- Peak amplitude - 3D Mean ([1]; 1.11 µM): 131.3 % change from baseline
- Peak width - 3D Mean ([1]; 1.11 µM): −1.0 % change from baseline
- Peak-to-peak interval - 3D Mean ([1]; 1.11 µM): 8.4 % change from baseline
- Area under the curve - 3D Mean ([1]; 3.33 µM): 123.1 % change from baseline
- Peak Number—3D Mean ([1]; 3.33 µM): −7.9 % change from baseline
- Peak amplitude - 3D Mean ([1]; 3.33 µM): 130.1 % change from baseline
- Peak width - 3D Mean ([1]; 3.33 µM): −3.2 % change from baseline
- Peak-to-peak interval - 3D Mean ([1]; 3.33 µM): 10.6 % change from baseline
- Area under the curve - 3D Mean ([1]; 10 µM): 11.9 % change from baseline
- Peak Number—3D Mean ([1]; 10 µM): 1.9 % change from baseline
- Peak amplitude - 3D Mean ([1]; 10 µM): 72.2 % change from baseline
- Peak width - 3D Mean ([1]; 10 µM): −40.8 % change from baseline
- Peak-to-peak interval - 3D Mean ([1]; 10 µM): −4.1 % change from baseline
- effect on peak number of oscillations, in words ([1]; 3D-cultured): did not significantly change the peak number
- effect on peak number / Ca2+ neuronal oscillations, in words [2]: significantly reduced peak number
- activation at 0.37 µM [2, 4]: 12.2%
- activation at 0.37 µM ([2]; read-out: Peak Number—2D Mean): -0.7%
- activation at 0.37 µM [2, 5]: 8.3%
- activation at 0.37 µM ([2]; read-out: Peak width - 2D Mean): 4.5%
- activation at 0.37 µM [2, 6]: 1.8%
- activation at 1.11 µM [2, 4]: -55.2%
- activation at 1.11 µM ([2]; read-out: Peak Number—2D Mean): 0.5%
- activation at 1.11 µM [2, 5]: -19.8%
- activation at 1.11 µM ([2]; read-out: Peak width - 2D Mean): -57.2%
- activation at 1.11 µM [2, 6]: 11.7%
- activation at 3.33 µM [2, 4]: -100%
- activation at 3.33 µM ([2]; read-out: Peak Number—2D Mean): -100%
- activation at 3.33 µM [2, 5]: -100%
- activation at 3.33 µM ([2]; read-out: Peak width - 2D Mean): -100%
- activation at 3.33 µM [2, 6]: -100%
- activation at 10 µM [2, 4]: -100%
- activation at 10 µM ([2]; read-out: Peak Number—2D Mean): -100%
- activation at 10 µM [2, 5]: -100%
- activation at 10 µM ([2]; read-out: Peak width - 2D Mean): -100%
- activation at 10 µM [2, 6]: -100%
- Free Cmax [3, 7]: 60 nM
- Free Cmax [3, 8]: 60 nM
